pIC50: −log10 of the molar value. Like-named read-outs stand apart in the source and are kept apart here.
Biological target: T1, mouse TMEM16A mutant V543A (Mus musculus, UniProt Q8BHY3, V543A)
T1 construct: expressed in transfected cells; host or cells: HEK293T
T1 sequence (Q8BHY3 1-960 V543A): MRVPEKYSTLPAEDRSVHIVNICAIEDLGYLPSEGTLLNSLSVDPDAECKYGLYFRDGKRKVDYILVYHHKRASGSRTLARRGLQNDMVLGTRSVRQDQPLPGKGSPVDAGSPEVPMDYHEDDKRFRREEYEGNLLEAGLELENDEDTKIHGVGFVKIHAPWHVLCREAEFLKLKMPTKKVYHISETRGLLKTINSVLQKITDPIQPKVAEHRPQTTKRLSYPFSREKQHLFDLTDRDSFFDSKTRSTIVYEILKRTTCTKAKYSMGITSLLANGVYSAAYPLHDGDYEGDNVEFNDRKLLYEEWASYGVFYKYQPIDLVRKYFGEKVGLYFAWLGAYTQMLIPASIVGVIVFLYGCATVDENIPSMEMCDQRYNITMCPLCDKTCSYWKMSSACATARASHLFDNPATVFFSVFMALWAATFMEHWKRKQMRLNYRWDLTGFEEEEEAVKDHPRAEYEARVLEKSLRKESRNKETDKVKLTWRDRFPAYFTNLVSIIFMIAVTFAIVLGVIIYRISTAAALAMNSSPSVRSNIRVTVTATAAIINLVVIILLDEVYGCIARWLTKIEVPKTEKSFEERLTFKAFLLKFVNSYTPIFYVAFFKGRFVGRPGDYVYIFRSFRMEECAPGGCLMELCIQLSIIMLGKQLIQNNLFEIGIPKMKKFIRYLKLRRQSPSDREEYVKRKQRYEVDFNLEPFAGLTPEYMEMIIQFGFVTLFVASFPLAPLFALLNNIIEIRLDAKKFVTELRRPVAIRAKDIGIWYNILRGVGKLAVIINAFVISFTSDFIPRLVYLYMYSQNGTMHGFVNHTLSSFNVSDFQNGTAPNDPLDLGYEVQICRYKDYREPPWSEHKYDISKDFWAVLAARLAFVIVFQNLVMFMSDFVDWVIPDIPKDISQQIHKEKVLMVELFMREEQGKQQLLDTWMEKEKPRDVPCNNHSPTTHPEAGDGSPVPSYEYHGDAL
Experiment: Inside-out patch recording of 1PBC block, mutant V543A
Type: cell-based
Settings: for remaining activity at 30 µM: 1PBC 30; for remaining activity at 30 µM / remaining activity at 100 µM: read-out: fraction of unblocked current; for remaining activity at 100 µM: 1PBC 100
Experimental: HEK293T cells (ATCC CRL-1573) were maintained in Dulbecco’s modified Eagle’s medium (DMEM; Sigma-Aldrich) supplemented with 10 U ml^−1 penicillin, 0.1 mg ml^−1 streptomycin (Sigma-Aldrich), 2 mM L-glutamine (Sigma-Aldrich), and 10% FBS (Sigma-Aldrich) in a humidified atmosphere containing 5% CO2 at 37 °C. HEK293S GnTI^− cells (ATCC CRL-3022) were maintained in HyClone HyCell TransFx-H medium (GE Healthcare) supplemented with 10 U ml^−1 penicillin, 0.1 mg ml^−1 streptomycin, 4 mM L-glutamine, 0.15% poloxamer 188 (Sigma-Aldrich), and 1% FBS in an atmosphere containing 5% CO2 at 185 rpm at 37 °C. The ac splice variant of mouse TMEM16A (UniProt ID: Q8BHY3), mouse TMEM16B (UniProt ID: Q8CFW1), or mouse TMEM16F (UniProt ID: Q6P9J9) bearing a 3C cleavage site, a Venus YFP, a Myc tag, and a Streptavidin-binding peptide (SBP) downstream of the open reading frame in a modified pcDNA3.1 vector (Invitrogen) were used as described previously[21],[31]. Mutations were introduced using a modified QuikChange method[58] and were verified by sequencing.
HEK293T cells were transfected with 3–4 μg DNA per 6 cm Petri dish using the calcium phosphate co-precipitation method and were used within 24–96 h after transfection. Recordings were performed on inside-out patches excised from HEK293T cells expressing the construct of interest. Patch pipettes were pulled from borosilicate glass capillaries (O.D. 1.5 mm, I.D. 0.86 mm, Sutter Instrument) and were fire-polished with a microforge (Narishige) before use. Pipette resistance was typically 3–8 MΩ when filled with the recording solutions detailed below. Seal resistance was typically 4 GΩ or higher. Voltage-clamp recordings were made using Axopatch 200B, Digidata 1550, and Clampex 10.7 (Molecular Devices). Analog signals were filtered with the in-built 4-pole Bessel filter at 10 kHz and were digitized at 20 kHz. Solution exchange was achieved using a gravity-fed system through a theta glass pipette mounted on an ultra-fast piezo-driven stepper (Siskiyou). […] All recordings were performed at 20 °C.
A symmetrical ionic condition was used throughout. Stock solution with Ca^2+-EGTA contained 150 mM NaCl, 5.99 mM Ca(OH)2, 5 mM EGTA, and 10 mM HEPES at pH 7.40. Stock solution with EGTA contained 150 mM NaCl, 5 mM EGTA, and 10 mM HEPES at pH 7.40. Free Ca^2+ concentrations were adjusted by mixing the stock solutions at the required ratios calculated using the WEBMAXC program (http://web.stanford.edu/~cpatton/webmaxcS.htm). Patch pipettes were filled with the stock solution with Ca^2+-EGTA, which has a free Ca^2+ concentration of 1 mM. 1PBC (ChemBridge) stock was reconstituted in anhydrous DMSO (Sigma-Aldrich) at 100 mM and stored at −20 °C. Working solutions with 1PBC were prepared by serial dilution. Unless otherwise stated, experiments were performed at a saturating Ca^2+ concentration as shown in Supplementary Table 1 and the primary data were corrected for current rundown as described previously[21],[25].
Concentration-response relations, obtained from the ratio of the I-V plots before and after the application of the blocker, were fitted to the Hill equation,1 I/Imax=1/1+IC50/[blocker]^h where I/Imax is the normalized current responses, IC50 defines the concentration at which inhibition is at its half-maximum, and h is the Hill coefficient.

remaining activity at 30 µM (-60 mV): 39.5%
remaining activity at 30 µM (-80 mV): 43.8%
remaining activity at 30 µM (-100 mV): 47.1%
remaining activity at 30 µM (-120 mV): 51.5%
remaining activity at 30 µM (-140 mV): 54.7%
remaining activity at 100 µM (0 mV): 9.46%
remaining activity at 100 µM (20 mV): 7.3%
remaining activity at 100 µM (40 mV): 6.78%
remaining activity at 100 µM (60 mV): 6.85%
remaining activity at 100 µM (80 mV): 6.35%
remaining activity at 100 µM (100 mV): 6.17%
remaining activity at 100 µM (120 mV): 6.44%
remaining activity at 100 µM (140 mV): 6.48%
remaining activity at 100 µM (-20 mV): 11.6%
remaining activity at 100 µM (-40 mV): 13.7%
remaining activity at 100 µM (-60 mV): 16%
remaining activity at 100 µM (-80 mV): 18.7%
remaining activity at 100 µM (-100 mV): 21.8%
remaining activity at 100 µM (-120 mV): 25%
remaining activity at 100 µM (-140 mV): 27.8%
pIC50 (20 mV, 15 µM Ca2+): 5.02
pIC50 (40 mV, 15 µM Ca2+): 5.06
pIC50 (60 mV, 15 µM Ca2+): 5.09
log-fold IC50 (change of mutant vs WT) (80 mV): 0.6263
pIC50 (80 mV, 15 µM Ca2+): 5.10
pIC50 (100 mV, 15 µM Ca2+): 5.08
pIC50 (120 mV, 15 µM Ca2+): 5.05
pIC50 (140 mV, 15 µM Ca2+): 5.02
pIC50 (-20 mV, 15 µM Ca2+): 4.88
pIC50 (-40 mV, 15 µM Ca2+): 4.81
pIC50 (-60 mV, 15 µM Ca2+): 4.73
pIC50 (-80 mV, 15 µM Ca2+): 4.66
pIC50 (-100 mV, 15 µM Ca2+): 4.59
pIC50 (-120 mV, 15 µM Ca2+): 4.52
pIC50 (-140 mV, 15 µM Ca2+): 4.46
pIC50 (V543A, V 0 mV): 4.95
pIC50 (V543A, V 20 mV): 5.02
pIC50 (V543A, V 40 mV): 5.06
pIC50 (V543A, V 60 mV): 5.09
pIC50 (V543A, V 80 mV): 5.10
pIC50 (V543A, V 100 mV): 5.08
pIC50 (V543A, V 120 mV): 5.05
pIC50 (V543A, V 140 mV): 5.02
pIC50 (V543A, V -20 mV): 4.88
pIC50 (V543A, V -40 mV): 4.81
pIC50 (V543A, V -60 mV): 4.73
pIC50 (V543A, V -80 mV): 4.66
pIC50 (V543A, V -100 mV): 4.59
pIC50 (V543A, V -120 mV): 4.52
pIC50 (V543A, V -140 mV): 4.46
Compound: N#Cc1c(C(F)(F)F)cc(O)n2c1nc1ccccc12 [1PBC]

— paper PMC9120017, “Inhibition mechanism of the chloride channel TMEM16A by the pore blocker 1PBC” (Nature Communications, 2022)
